In US20110280812A1, “FLAVOR-ENHANCING AMIDE COMPOUNDS” (priority 2010, published 2011):

Legend:
trained sensory panel [1] = experiment: Sensory panel evaluation of MSG-IMP mixture combined with Formulas II-IV; format: in vivo; conditions: 0.01% MSG and 0.005% IMP; for effect on umami flavor of the MSG-IMP mixture: summary, no concentration stated
Source text: The MSG-inosine monophosphate (IMP) mixture (0.01% MSG and 0.005% IMP), an umami composition, was combined with Formulas II-IV at different concentrations and evaluated by a trained sensory panel.

trained sensory panel [2] = experiment: Sensory panel evaluation of MSG (0.02%) combined with Formula II; format: in vivo
Experimental: The flavor compositions of MSG (0.02%) combined with (2E,4E)-N-phenethylundeca-2,4-dien-8,10-diynamide (Formula II) at different concentrations were evaluated by a trained sensory panel using an intensity scale of 0 to 5, where 0=none, 1=minimal, 3=moderate, and 5=intense. Averaged sensory scores were reported in the following: […]

Compound | Flavor Profile: effect on umami flavor of the MSG-IMP mixture (trained sensory panel [1]; amide at 500 ppb) | effect on umami flavor of the MSG-IMP mixture (trained sensory panel [1]) | effect on umami flavor of MSG (trained sensory panel [2]; summary over the concentrations tested) | Flavor Profile (trained sensory panel [2]; Formula II 0) | Flavor Intensity (trained sensory panel [2]; Formula II 0, averaged sensory score, scale 0 to 5 (0=none, 1=minimal, 3=moderate, 5=intense))
C#CC#CCC/C=C/C=C/C(=O)NCCc1ccccc1 [Formula II, (2E,4E)-N-phenethylundeca-2,4-dien-8,10-diynamide] | strongest enhancement | enhanced the umami flavor of the MSG-IMP mixture | enhanced the umami flavor of MSG |  | 
C#CC#CCC/C=C/C=C/C(=O)NCC(C)CC (stereo not drawn) [Formula IV, (2E,4E)-N-(2-methylbutyl)undeca-2,4-dien-8,10-diynamide] |  | enhanced the umami flavor of the MSG-IMP mixture |  |  | 
N[C@@H](CCC(=O)O)C(=O)[O-].[Na+] [MSG, monosodium glutamate] |  |  |  | umami | 1.0
